Measurements reported in PMC8347092, “Betulin, a Newly Characterized Compound in Acacia auriculiformis Bark, Is a Multi-Target Protein Kinase Inhibitor” (Molecules, 2021).
Where “and” joins values, the source holds several entries; their conditions need not be identical. Equal values may be shown once. Where a name gives a salt, the structure may show the parent alone. Values belong to the compound of their own block, whether it stands above or below them.

Assays:
[1] = test system: K562R (doxorubicin-resistant K562) chronic myelogenous leukemia cells; assay: MTS cell viability assay, K562R cells; type: cell-based; details: Homo sapiens, K-562R, 48 h exposure, n = 3
NEK6 = NEK6 (Homo sapiens, UniProt Q9HC98); assay: ADP-Glo protein kinase assay, NEK6; type: biochemical
Sequence of NEK6 (Q9HC98 whole entry): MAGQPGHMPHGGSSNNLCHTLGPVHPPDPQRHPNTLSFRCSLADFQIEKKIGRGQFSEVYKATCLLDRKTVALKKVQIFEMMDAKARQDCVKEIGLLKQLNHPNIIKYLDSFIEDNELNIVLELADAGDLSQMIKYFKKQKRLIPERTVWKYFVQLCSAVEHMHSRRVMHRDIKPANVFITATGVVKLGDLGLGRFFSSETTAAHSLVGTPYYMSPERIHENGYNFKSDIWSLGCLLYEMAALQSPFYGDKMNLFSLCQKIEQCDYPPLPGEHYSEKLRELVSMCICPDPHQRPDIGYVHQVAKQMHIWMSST
Experimental: (§1) Kinase enzymatic activities were assayed in 384-well plates using the ADP-Glo^TM assay kit, following the recommendations of the manufacturer (Promega, Madison, WI). Controls were performed in appropriate dilutions of dimethyl sulfoxide (DMSO). Kinase activities, measured in the presence of 10 µM ATP, are expressed as percentage of maximal activity, i.e., measured in the absence of inhibitor. In order to determine the half-maximal inhibitory concentration (IC50), the assays were performed in duplicate in the absence or presence of increasing doses of the tested compounds. Data were analyzed using GraphPad PRISM (GraphPad Software, San Diego, CA, USA) software to fit a sigmoïdal curve that allowed determination of the IC50 values. The experimental conditions used for measuring kinase activities are comprehensively described in Ibrahim et al.. Human recombinant ABL1 mutant (T315I) was purchased from Promega (Catalog # V5320) and tested following the recommendations of the manufacturer (Promega, Madison, WI, USA).

Pim1 = Pim1 (Homo sapiens, UniProt P11309); assay: ADP-Glo protein kinase assay, Pim1; type: biochemical; details: for % of kinase activity that remained, Pim1: 10 µM ATP, normalized to DMSO control, mean n = 2
Sequence of Pim1 (P11309 whole entry): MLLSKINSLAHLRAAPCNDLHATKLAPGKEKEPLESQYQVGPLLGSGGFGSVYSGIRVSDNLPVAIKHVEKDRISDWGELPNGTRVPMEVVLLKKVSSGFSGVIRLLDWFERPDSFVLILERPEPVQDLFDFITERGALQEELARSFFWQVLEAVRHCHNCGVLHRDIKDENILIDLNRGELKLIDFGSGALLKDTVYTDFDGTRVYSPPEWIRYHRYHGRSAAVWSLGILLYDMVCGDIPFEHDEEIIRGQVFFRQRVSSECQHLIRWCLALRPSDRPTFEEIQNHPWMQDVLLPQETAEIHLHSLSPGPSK
Experimental: as §1

JAK3 = biological target: T1, JAK3 (Homo sapiens, UniProt P52333); assay: ADP-Glo protein kinase assay, JAK3; type: biochemical; details: for % of kinase activity that remained, JAK3: 10 µM ATP, normalized to DMSO control, mean n = 2
T1 sequence (P52333 1-1124): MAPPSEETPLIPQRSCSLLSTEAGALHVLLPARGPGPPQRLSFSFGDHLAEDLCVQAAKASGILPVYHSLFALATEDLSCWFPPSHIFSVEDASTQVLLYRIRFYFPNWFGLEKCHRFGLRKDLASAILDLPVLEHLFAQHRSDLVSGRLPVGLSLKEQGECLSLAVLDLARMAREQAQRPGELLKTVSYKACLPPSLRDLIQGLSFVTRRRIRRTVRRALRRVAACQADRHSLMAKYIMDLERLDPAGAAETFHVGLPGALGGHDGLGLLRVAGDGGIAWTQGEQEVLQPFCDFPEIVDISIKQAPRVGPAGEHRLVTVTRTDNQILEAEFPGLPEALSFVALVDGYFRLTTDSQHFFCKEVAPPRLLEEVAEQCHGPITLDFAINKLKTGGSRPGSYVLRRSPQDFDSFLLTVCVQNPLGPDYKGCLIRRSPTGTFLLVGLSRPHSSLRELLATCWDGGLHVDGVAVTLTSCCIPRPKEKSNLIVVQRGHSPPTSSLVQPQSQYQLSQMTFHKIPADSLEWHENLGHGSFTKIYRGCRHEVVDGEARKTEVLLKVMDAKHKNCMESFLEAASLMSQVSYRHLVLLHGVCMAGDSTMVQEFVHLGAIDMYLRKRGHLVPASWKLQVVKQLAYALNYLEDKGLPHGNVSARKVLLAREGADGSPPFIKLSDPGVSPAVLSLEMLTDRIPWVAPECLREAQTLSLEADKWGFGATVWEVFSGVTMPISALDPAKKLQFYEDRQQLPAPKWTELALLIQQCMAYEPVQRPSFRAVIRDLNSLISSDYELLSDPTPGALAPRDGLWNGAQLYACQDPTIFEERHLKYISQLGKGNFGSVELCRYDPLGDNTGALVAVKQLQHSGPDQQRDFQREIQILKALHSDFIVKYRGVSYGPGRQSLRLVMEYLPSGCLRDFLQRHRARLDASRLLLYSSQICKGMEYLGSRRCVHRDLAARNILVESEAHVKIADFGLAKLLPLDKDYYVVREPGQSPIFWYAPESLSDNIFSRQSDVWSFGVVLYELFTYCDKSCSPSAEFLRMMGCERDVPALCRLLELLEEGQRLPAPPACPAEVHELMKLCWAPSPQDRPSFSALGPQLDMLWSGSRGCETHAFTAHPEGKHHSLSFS
Experimental: as §1

[2] = test system: human peripheral blood lymphocytes (hPBLs); assay: MTS cell viability assay, human peripheral blood lymphocytes; type: cell-based; details: betulin ≤ 100 µM, 48 h, four healthy donors
Experimental: Peripheral blood mononuclear cells (PBMCs) were isolated by Ficoll gradient centrifugation from blood buffy coats of healthy donors, provided by the Etablissement Français du Sang (EFS). The research protocol was conducted under French legal guidelines. After separation of monocytes by 1 h adhesion step, non-adherent PBMCs (peripheral blood lymphocytes, PBL) were harvested. PBL were cultured in RPMI 1640 medium (Gibco, Life technologies, Carlsbad, CA, USA) supplemented with 10% decomplemented fetal bovine serum (CVFSVF00–01, Eurobio), penicillin (100 IU/mL), and streptomycin (100 μg/mL) (15140–122, Gibco). All cells were cultured at 37 °C with 5% CO2.
(§2) Cell viability was evaluated with the MTS (3-(4,5-dimethylthiazol-2-yl)-5-(3-carboxymethoxyphenyl)-2-(4-sulfophenyl)-2H-tetrazolium) reduction kit, (CellTiter 96 Aqueous Non-Radioactive Cell Proliferation Assay, Promega, Fitchburg, WI, USA), according to the instructions of the manufacturer. […] Further details on experimental conditions used can be found in Delehouzé et al. 2017 [47].

[3] = test system: K562S (doxorubicin-sensitive K562) chronic myelogenous leukemia cells; assay: MTS cell viability assay, K562S cells; type: cell-based, human; details: for IC50: Homo sapiens, K562, 48 h exposure, n = 3
Experimental: K562 (ATCC®, CCL-243, described here as K562S to indicate sensitivity to doxorubicin), a human chronic myelogenous leukemia cell line, was obtained from American Type Culture Collection (Manassas, VA, USA). A doxorubicin-resistant cell line (K562R, also known as K562/Adr) was kindly provided by the IRSET institute (Research Institute for Environmental and Occupational Health, INSERM, University of Rennes 1, France). The cells were maintained at 37 °C and 5% CO2 in Gibco™ 1640 Roswell Park Memorial Institute (RPMI-1640) medium containing 10% fetal bovine serum (FBS) (Life Technologies^TM, Thermo Fisher Scientific, Waltham, MA, USA).
as §2

CDK5/p25 = CDK5/p25 (Homo sapiens, UniProt Q00535); assay: ADP-Glo protein kinase assay, CDK5/p25; type: biochemical; details: 10 µM ATP, normalized to DMSO control, mean n = 2
Sequence of CDK5/p25 (Q00535 whole entry): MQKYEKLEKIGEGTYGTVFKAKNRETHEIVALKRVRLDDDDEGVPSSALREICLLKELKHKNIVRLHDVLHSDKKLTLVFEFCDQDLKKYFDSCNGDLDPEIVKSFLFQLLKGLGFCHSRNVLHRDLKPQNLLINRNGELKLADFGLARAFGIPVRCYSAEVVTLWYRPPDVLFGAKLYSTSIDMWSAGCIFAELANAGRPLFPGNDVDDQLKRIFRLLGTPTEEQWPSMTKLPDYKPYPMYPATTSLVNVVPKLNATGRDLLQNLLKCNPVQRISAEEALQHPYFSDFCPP
Sequence of CDK5/p25 (Q15078 99-307 partner limits assumed): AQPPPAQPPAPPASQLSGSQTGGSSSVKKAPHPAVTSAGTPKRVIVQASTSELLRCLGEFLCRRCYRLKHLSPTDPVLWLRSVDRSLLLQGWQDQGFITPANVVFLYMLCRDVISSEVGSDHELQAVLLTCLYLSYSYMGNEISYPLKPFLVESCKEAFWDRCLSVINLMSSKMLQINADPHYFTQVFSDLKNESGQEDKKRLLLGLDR
Experimental: as §1

GSK-3β = GSK-3β (Homo sapiens, UniProt P49841); assay: ADP-Glo protein kinase assay, GSK-3β; type: biochemical; details: for % of kinase activity that remained, GSK-3β: 10 µM ATP, normalized to DMSO control, mean n = 2
Sequence of GSK-3β (P49841 whole entry): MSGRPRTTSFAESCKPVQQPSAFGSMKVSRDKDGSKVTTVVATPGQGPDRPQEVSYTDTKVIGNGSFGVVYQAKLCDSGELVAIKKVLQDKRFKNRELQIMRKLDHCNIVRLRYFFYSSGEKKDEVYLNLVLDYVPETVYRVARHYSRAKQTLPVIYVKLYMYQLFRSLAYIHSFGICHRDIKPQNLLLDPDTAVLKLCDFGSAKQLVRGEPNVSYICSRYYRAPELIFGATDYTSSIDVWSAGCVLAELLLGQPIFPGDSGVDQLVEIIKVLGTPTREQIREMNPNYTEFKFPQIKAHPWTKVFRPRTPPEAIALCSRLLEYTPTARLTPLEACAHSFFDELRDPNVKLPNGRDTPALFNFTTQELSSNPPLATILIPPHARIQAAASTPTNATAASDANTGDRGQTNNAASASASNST
Experimental: as §1

[4] = cited from earlier work
CDK9/CyclinT = CDK9/CyclinT (Homo sapiens, UniProt P50750); assay: ADP-Glo protein kinase assay, CDK9/CyclinT; type: biochemical; details: 10 µM ATP, normalized to DMSO control, mean n = 2
Sequence of CDK9/CyclinT (P50750 whole entry): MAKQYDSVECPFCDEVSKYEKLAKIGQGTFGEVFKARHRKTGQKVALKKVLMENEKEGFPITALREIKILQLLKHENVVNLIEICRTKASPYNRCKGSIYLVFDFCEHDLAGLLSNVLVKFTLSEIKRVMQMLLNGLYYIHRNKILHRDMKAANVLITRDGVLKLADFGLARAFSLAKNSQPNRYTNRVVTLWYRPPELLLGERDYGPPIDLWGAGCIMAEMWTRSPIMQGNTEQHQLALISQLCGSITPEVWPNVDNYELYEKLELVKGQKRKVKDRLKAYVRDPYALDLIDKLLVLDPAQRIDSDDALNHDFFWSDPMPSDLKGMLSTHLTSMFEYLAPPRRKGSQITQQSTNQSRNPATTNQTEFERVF
Sequence of CDK9/CyclinT (O60563 whole entry partner): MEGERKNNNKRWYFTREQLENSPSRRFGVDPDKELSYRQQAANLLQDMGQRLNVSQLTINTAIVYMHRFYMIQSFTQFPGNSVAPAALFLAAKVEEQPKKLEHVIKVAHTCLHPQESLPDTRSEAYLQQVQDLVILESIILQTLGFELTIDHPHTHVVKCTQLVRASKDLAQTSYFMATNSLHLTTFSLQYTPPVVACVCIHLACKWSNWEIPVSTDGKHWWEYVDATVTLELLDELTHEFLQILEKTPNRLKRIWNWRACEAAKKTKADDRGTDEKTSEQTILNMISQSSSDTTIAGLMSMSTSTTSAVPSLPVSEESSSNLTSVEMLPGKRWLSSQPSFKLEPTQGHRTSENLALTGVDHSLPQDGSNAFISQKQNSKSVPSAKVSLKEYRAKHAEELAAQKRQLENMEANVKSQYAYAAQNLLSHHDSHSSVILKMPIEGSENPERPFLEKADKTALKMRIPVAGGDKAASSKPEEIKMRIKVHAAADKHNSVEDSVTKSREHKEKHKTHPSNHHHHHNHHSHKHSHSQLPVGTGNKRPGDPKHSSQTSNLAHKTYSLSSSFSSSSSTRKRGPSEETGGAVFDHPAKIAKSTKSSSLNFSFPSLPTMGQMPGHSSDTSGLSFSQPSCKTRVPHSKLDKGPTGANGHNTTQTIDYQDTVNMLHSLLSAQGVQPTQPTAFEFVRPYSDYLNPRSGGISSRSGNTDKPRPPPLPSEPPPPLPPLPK
Experimental: as §1

Haspin = biological target: T2, Haspin (Homo sapiens, UniProt Q8TF76); assay: ADP-Glo protein kinase assay, Haspin; type: biochemical; details: 10 µM ATP, normalized to DMSO control, mean n = 2
T2 sequence (Q8TF76 1-798): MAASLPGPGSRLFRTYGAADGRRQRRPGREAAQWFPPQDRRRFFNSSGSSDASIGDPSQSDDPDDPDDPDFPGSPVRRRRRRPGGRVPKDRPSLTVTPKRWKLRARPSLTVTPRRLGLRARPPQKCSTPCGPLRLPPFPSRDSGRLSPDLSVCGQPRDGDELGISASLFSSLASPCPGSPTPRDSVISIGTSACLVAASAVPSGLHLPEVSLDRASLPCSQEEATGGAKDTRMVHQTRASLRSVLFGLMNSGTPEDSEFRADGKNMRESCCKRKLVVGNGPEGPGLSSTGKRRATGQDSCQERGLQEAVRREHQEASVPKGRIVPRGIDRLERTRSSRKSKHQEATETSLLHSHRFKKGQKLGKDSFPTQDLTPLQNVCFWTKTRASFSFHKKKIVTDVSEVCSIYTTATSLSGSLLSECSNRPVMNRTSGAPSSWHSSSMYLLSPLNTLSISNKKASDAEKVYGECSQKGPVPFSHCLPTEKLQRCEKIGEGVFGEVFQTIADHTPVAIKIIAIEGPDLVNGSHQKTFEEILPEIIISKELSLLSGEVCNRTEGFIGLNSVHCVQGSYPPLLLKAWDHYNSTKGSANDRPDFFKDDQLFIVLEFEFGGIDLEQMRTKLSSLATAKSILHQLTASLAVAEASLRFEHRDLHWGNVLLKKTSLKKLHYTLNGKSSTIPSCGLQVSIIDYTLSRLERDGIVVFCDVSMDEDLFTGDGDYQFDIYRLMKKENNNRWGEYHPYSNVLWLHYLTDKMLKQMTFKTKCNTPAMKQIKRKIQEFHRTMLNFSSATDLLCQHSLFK
Experimental: as §1

GSK-3α = GSK-3α (Homo sapiens, UniProt P49840); assay: ADP-Glo protein kinase assay, GSK-3α; type: biochemical
Sequence of GSK-3α (P49840 whole entry): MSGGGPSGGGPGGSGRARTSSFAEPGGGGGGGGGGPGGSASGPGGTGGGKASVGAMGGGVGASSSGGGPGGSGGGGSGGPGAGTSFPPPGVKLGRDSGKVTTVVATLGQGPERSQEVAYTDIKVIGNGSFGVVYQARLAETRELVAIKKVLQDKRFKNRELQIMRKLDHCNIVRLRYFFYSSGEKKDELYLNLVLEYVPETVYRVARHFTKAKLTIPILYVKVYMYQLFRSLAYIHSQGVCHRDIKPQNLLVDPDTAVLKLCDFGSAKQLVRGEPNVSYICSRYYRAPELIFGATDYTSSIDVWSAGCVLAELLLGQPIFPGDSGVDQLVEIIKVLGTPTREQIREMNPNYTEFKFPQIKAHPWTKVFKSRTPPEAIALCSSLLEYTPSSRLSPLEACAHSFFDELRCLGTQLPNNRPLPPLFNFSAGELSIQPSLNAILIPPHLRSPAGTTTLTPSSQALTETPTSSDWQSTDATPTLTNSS
Experimental: as §1

[5] = test system: phospho-ERK1/2 (Thr202/Tyr204); assay: Immunoblot of phospho-ERK1/2 in K562S cells; type: cell-based, human; details: 6 h treatment, ImageJ band quantification
Experimental: The concentration of DMSO in the culture medium was 1%. Cell lysates were prepared by sonication of the cells in homogenization buffer with 0.5% of nonidet P-40 non-ionic detergent (NP-40) as described previously. SDS-PAGE and immunoblotting were performed following standard procedures. Anti-α-tubulin antibody (clone B512, T5168, 1:5000) was purchased from Sigma Aldrich (St. Louis, MO, USA). The anti-phospho-p44/42 MAPK (#28733–1-AP, 1:2000) was purchased from Proteintech® (Rosemont, IL, USA). This rabbit polyclonal antibody detects p44 and p42 MAPK when doubly phosphorylated (at Thr202 and Tyr204 of p44 and at Thr185 and Tyr187 of p42 MAPK).

[6] = ref ChemSpider database, Royal Society of Chemistry; cited from earlier work
ABL1 = ABL1 (Homo sapiens, UniProt P00519); assay: ADP-Glo protein kinase assay, ABL1; type: biochemical; details: for % of kinase activity that remained, ABL1: 10 µM ATP, normalized to DMSO control, mean n = 2
Experimental: as §1, with “Kinase activities, measured in the presence of 10 µM ATP, are expressed as percentage of maximal activity, i.e., measured in the absence of inhibitor.” left out

ABL1 mutant (T315I) = ABL1 mutant (T315I) (Homo sapiens, UniProt P00519, T315I); details: inhibitor at 1 µM; 10 µM ATP; compared with wild type ABL1
Experimental: Effect of the T315I ABL1 kinase domain mutation on the inhibition by betulin. We selected 1 µM
We measured inhibition of mutant and WT ABL1 kinase activities by betulin and by
imatinib, using the ADP-Glo luminescent assay. ATP concentration used in the kinase assays was 10 µM.
Data are mean (N=3, n=3) ± SEM expressed as % of residual kinase activity, normalized to the DMSO control.

VEGFR2 = VEGFR2 (Homo sapiens, UniProt P35968); assay: ADP-Glo protein kinase assay, VEGFR2; type: biochemical
Sequence of VEGFR2 (P35968 20-1356): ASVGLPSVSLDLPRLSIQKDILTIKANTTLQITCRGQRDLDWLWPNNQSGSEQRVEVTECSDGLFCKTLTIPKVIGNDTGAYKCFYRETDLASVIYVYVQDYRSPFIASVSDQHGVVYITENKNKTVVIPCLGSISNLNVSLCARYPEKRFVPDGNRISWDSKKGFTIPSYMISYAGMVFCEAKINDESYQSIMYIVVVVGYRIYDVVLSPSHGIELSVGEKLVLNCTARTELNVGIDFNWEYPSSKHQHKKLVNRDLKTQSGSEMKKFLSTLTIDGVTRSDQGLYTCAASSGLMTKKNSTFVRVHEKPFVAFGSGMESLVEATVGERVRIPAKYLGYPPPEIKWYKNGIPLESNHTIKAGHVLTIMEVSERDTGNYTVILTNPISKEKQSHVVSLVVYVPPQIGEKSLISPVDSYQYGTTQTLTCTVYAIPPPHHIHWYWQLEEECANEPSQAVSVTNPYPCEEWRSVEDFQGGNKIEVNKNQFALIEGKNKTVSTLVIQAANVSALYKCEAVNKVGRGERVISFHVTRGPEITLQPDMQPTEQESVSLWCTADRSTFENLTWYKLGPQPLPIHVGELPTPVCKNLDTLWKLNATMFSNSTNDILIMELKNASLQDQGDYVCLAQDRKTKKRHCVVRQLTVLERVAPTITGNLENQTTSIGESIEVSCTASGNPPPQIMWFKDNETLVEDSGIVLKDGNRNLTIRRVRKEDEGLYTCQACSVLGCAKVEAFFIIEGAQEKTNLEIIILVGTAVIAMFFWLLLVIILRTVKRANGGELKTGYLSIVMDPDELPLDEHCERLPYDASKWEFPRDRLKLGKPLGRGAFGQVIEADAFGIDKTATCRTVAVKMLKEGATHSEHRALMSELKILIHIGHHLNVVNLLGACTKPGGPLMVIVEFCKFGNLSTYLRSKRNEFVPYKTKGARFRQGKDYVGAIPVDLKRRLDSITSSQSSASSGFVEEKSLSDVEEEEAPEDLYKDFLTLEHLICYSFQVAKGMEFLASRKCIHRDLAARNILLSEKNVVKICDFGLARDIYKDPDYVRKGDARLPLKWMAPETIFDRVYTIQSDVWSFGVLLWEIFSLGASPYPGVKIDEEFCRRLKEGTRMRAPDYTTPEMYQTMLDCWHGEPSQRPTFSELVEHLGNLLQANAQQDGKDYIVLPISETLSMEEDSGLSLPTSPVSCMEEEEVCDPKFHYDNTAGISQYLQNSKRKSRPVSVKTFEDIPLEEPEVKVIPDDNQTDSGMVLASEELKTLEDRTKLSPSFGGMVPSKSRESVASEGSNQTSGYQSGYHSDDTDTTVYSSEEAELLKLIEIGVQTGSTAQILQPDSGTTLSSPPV
Experimental: as §1

CK1ε = CK1ε (Homo sapiens, UniProt P49674); assay: ADP-Glo protein kinase assay, CK1ε; type: biochemical; details: for % of kinase activity that remained, CK1ε: 10 µM ATP, normalized to DMSO control, mean n = 2
Sequence of CK1ε (P49674 whole entry): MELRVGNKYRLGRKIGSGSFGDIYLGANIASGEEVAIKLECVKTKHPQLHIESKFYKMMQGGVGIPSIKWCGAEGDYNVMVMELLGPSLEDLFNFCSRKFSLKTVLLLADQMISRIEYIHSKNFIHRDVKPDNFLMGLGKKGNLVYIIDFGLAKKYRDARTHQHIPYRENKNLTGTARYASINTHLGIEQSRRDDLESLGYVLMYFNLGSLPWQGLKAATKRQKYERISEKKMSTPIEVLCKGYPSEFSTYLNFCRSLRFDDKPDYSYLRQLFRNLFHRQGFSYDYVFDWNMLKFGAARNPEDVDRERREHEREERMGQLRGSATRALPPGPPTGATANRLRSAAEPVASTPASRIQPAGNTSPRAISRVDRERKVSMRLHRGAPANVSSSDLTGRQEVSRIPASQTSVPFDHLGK
Experimental: as §1

[7] = betulin purified from Acacia auriculiformis at 10 µg/mL
[8] = betulin purified from Acacia auriculiformis at 1 µg/mL

SMILES: C=C(C)[C@@H]1CC[C@]2(CO)CC[C@]3(C)[C@H](CC[C@@H]4[C@@]5(C)CC[C@H](O)C(C)(C)[C@@H]5CC[C@]43C)[C@@H]12 [Betulin, 3-lup-20(29)-ene-3β,28-diol]
- IC50 [1]: 13.5 µM
- IC50 (NEK6): 3.02 µM
- % of kinase activity that remained, Pim1 (Pim1; betulin purified from Acacia auriculiformis at 1 µg/mL, ≥100 = no detectable inhibition): ≥100%
- % of kinase activity that remained, Pim1 (Pim1; [7]): 90%
- inhibition at 10 µg/mL (Pim1; read-out: inhibition of kinase activity, Pim1): 10%
- IC50 (JAK3): 1.08 µM
- % of kinase activity that remained, JAK3 (JAK3; [8]): 28%
- % of kinase activity that remained, JAK3 (JAK3; [7]): 25%
- viability of hPBLs [2]: did not induce a significant decrease
- IC50 [3]: 16.5 µM
- effects on K562S cell viability when cells co-treated with z-VAD-fmk ([3]; betulin 1-50 µM with 20 µM z-VAD-fmk (pan-inhibitor of caspases), 48 h): not significantly altered
- % of kinase activity that remained, CDK5/p25 (CDK5/p25; [8]): 94%
- % of kinase activity that remained, CDK5/p25 (CDK5/p25; [7]): 99%
- IC50 (GSK-3β): 1.06 µM
- % of kinase activity that remained, GSK-3β (GSK-3β; [8]): 38%
- % of kinase activity that remained, GSK-3β (GSK-3β; [7]): 30%
- solubility in water [4]: 0.08 μg/mL and 0.18 µM
- % of kinase activity that remained, CDK9/CyclinT (CDK9/CyclinT; [8]): 88%
- % of kinase activity that remained, CDK9/CyclinT (CDK9/CyclinT; [7]): 60%
- % of kinase activity that remained, Haspin (Haspin; [8]): 72%
- % of kinase activity that remained, Haspin (Haspin; [7]): 91%
- IC50 (GSK-3α): 0.72 µM
- %pERK/Tubulin ([5]; 50 µM): 71.3%
- %pERK/Tubulin ([5]; 100 µM): 48.3%
- predicted Octanol-Water Partition Coefficient (LogP) [6]: 9.01
- IC50 (ABL1): 0.93 µM
- inhibition of the ABL1 activity in ATP competition assay (ABL1; 10 µM betulin, 100 µM ATP compared with 10 µM ATP): significantly decreased
- % of kinase activity that remained, ABL1 (ABL1; [8]): 36%
- % of kinase activity that remained, ABL1 (ABL1; [7]): 21%
- inhibition at 10 µg/mL (ABL1; read-out: inhibition of kinase activity, ABL1): 79%
- inhibition of the enzymatic activity of T315I mutant of ABL1 (ABL1 mutant (T315I)): retains its capacity to inhibit
- IC50 (VEGFR2): 2.45 µM
- IC50 (CK1ε): 2.11 µM
- % of kinase activity that remained, CK1ε (CK1ε; [8]): 53%
- % of kinase activity that remained, CK1ε (CK1ε; [7]): 48%

- IC50 [3]: 0.59 µM
SMILES: COc1cccc2c1C(=O)c1c(O)c3c(c(O)c1C2=O)C[C@@](O)(C(=O)CO)C[C@@H]3O[C@H]1C[C@H](N)[C@H](O)[C@H](C)O1 [Doxorubicin, reference compound]

SMILES: Cc1ccc(NC(=O)c2ccc(CN3CCN(C)CC3)cc2)cc1Nc1nccc(-c2cccnc2)n1 [imatinib mesylate, reference compound]
- %pERK/Tubulin ([5]; 20 µM): 1.5%
